Values quoted from earlier work as cited in PMC9441020 (Journal of medicinal chemistry, 2022).

Key:
[1] = system: HCV NS5B
[2] = system: HIV-1 INST

O=C(NCc1ccccc1)c1nc(-c2cccs2)nc(O)c1O [compound 11, N-Benzyl-5-hydroxy-6-oxo-2-(thiophen-2-yl)-1,6-dihydropyrimidine-4-carboxamide]
inhibition of HCV NS5B [1]: without significantly inhibiting
inhibition of HIV-1 INST [2]: potently inhibited

O=C(O)c1nc(-c2cccs2)nc(O)c1O [compound 10, 5-Hydroxy-6-oxo-2-(thiophen-2-yl)-1,6-dihydropyrimidine-4-carboxylic acid]
inhibition of HCV NS5B [1]: effectively inhibiting
inhibition of HIV-1 INST [2]: did not inhibit
